In patent US10426745B2, “Polymeric metformin and its use as a therapeutic agent and as a delivery vehicle” (The University of North Carolina at Chapel Hill, priority 2015, dated 2019):

Experiments:
AMPKα = assay: Western blot of tumor proteins: AMPKα phosphorylation; assay type: in vivo, mice; settings: H460 tumors, IV every other day
Protocol: (§1) FIG. 7A depicts Metformin and PolyMet inhibition of tumor growth by activation of AMPK, inhibiting the mTOR pathway; FIG. 7B depicts inducing autophagy and apoptosis mechanisms. Mice bearing H460 tumors were given IV injections every other day and analysis of tumor proteins was prepared 24 h after the second injection. Cells under autophagy were stained by LC3b antibody (red) and apoptosis of cells was indicated by TUNEL assay (green). Nuclei are stained blue. The percentage denotes the average percentage of LC3b positive cells (red) and the percentage of TUNEL positive cells (green), respectively. Five randomly selected microscopic fields were quantitatively analyzed on ImageJ. Data are mean±S.D. (n=5 per group).
(§2) H460 tumor-bearing mice were given IV injections every second day and mice were sacrificed 24 hours after the third injection. Protein per lane was separated by 4%-12% SDS-PAGE electrophoresis (Invitrogen) before being transferred to polyvinylidene difluoride (PVDF) membranes (Bio-Rad). The membranes were blocked for 1 h with 5% non fat dry milk (Bio-Rad) at room temperature and then incubated with antibodies overnight at 4° C. The membranes were washed 3 times and then incubated with a secondary antibody (1:4,000 dilution; Cell signal Inc.) at room temperature for 1 h. […]

mTOR = assay: Western blot of tumor proteins: p-mTOR/mTOR; assay type: in vivo, mice; settings: H460 tumors; compared to the PBS and LPH-PEI
Protocol: as §1, §2

H460 tumor = assay: H460 xenograft tumor growth / antitumor activity; assay type: in vivo, mice; settings: vs PBS and LPH-PEI groups; IV 0.4 mg/kg body weight every other day
Protocol: FIG. 6A depicts Metformin and PolyMet inhibit H460 tumor growth. PBS, metformin, LPH-PEI and LPH-PolyMet were administered intravenously every other day, and mice were sacrificed 24 hours after the final injection. In FIG. 6A, tumor volumes were measured every day; FIG. 6B depicts tumor weights were measured on day after final injection and compared with body weights to determine percentage of tumor burden; FIG. 6C depicts visual observations of the H460 tumor sizes in each treatment group at the end time point; (n=5 per group).
Female nude female mice and female CD1 mice that were 6-8 weeks old were used in the studies. Female nude mice were purchased from National Cancer Institute (Bethesda, Md.) and bred by the Division of Laboratory Animal Medicine (DLAM) at University of North Carolina at Chapel Hill. CD1 mice were purchased from Charles River Laboratories (Morrisville, N.C.). To establish the xenograft models, 5×10^6 cells in 100 μL of PBS were injected subcutaneously into the right flank of the mice.
Human NSCLC cells xenografts were used as previously described. H460 human lung cancer cells ([…]) were subcutaneously injected into the right flanks of female athymic nu/nu mice. […] Animal weight and tumor volumes were measured every other day. […]

H460 tumor cells = assay: TUNEL assay of in vivo tumor cell apoptosis; set-up: species or system mice; settings: H460 tumors after IV treatment
Protocol: as §1
FIG. 8 depicts in vitro and in vivo gene silencing effect of different LPH nanoparticles. […] Luciferase activities of cells were analyzed and normalized by protein. *p<0.05, **p<0.01, ***p<0.001. […] H460 tumor-bearing mice were injected intravenously every other day; FIG. 8B depicts tumor BCL2 protein levels after 2 injections were measured by western blot analysis; FIG. 8C depicts tumor volumes were measured every day; FIG. 8D depicts TUNEL staining in H460 tumor cells after treatment with siRNA in different formulations in vivo. […] Five randomly selected microscopic fields were quantitatively analyzed on ImageJ. […]

LC3b = LC3b immunostaining of H460 tumors (autophagy); assay type: in vivo, mice; settings: vs other groups
Protocol: as §1

luciferase plasmid = assay: pDNA transfection efficiency with luciferase plasmid; assay type: cell-based
Protocol: FIG. 10 depicts transfection efficiency of (A) L-PEI and L-PolyMet and (B) B-PEI and B-PolyMet at the indicated N/P ratios. Luciferase pDNA concentration was 0.5 μg/well in 96-well plate. Data are mean±S.D. (n=6 per group).

transfection efficiency (luciferase plasmid) | Molecule | phosphorylation level of AMPKα relative to PBS group (AMPKα) | reduction in p-mTOR/mTOR levels (mTOR) | inhibition of cancer progression (tumor growth) (H460 tumor) | percent of apoptotic (TUNEL-positive) cells (H460 tumor cells) | LC3b-associated red fluorescence (autophagy) (LC3b)
– | CN(C)C(=N)NC(=N)N [Metformin, N,N-dimethylimidodicarbonimidic diamide] | about 9 fold | 2.3 fold | significant inhibition | 18.8% | higher
did not help | protamine | – | – | – | – | –
